# From patent US20250129130A1, “USE OF VARIOVORAX MICROBES AS AN ALTERNATIVE TREATMENT FOR COCCIDIOSIS” (ZIVO BIOSCIENCE, INC., priority 2020, published 2025)
# Experiments:
# [1] = system: E. acervuline, E. maxima, E. tenella oocysts; test: Study No. 3: floor-pen broiler performance and digestive health under cocci-challenge + built-up litter; settings: Coban 90 g/ton, Inventive Compound 125 g/ton
# TLR4 [2] = target: T1, TLR4 (Homo sapiens, UniProt O00206+Q9Y6Y9); settings: Phase 2 multiple sclerosis trial, versus placebo; cited from earlier work
# TLR4 [3] = target: T1, TLR4; settings: severe sepsis; cited from earlier work
# [4] = system: mixed E. acervulina, E. maxima, and E. tenella coccidial inoculum; test: Study No. 1: anticoccidial efficacy in feed, battery-cage broilers, mixed Eimeria challenge; type: in vivo, male broiler chickens; settings: Salinomycin 60 g/t
# Source text: A non-limiting example of a method for the improvement of growth efficiency in broiler chickens exposed to a coccidiosis disease challenge is set forth.
# The study animals were chickens, specifically male broiler chickens. Day of hatch male broiler chicks were obtained. At the hatchery, the birds were sexed. Sets of ten chicks were randomly selected, group weighed and placed into cages. The number and disposition of all birds not used for allocation were documented. No birds were replaced during the course of the study. There were 80 birds per treatment group.
# The poultry cages were blocked by location in the battery with block size equal to treatments. The study began when the birds, specifically broiler chickens, were placed on the day of hatch (DOT 0) at which time they were allocated to the experimental cages. Only healthy birds were selected. At placement the birds were fed the treatment feeds. Thermostatically controlled gas furnace/air conditioner maintained uniform temperature in the cages.
# An un-medicated commercial type chicken starter compounded with feedstuffs commonly used in the United States was formulated. The diet was an all-vegetable feed having no antibiotics, organic acid, NSP enzyme, or direct fed microbial. This ration was fed ad libitum from the date of chick arrival until Day 28 of the study. The diet formulation was included in the source data. Experimental treatment feeds were prepared from this basal starter feed. Quantities of all basal feed and test articles used to prepare treatment batches were documented.
# All birds were weighed by cage on DOT 0, 14, 20 and 28. Feed was weighed in on DOT 0. The remaining feed was weighed on DOT 14, 20, and 28.
# Coccidial oocysts inoculation procedures were carried out. On Day 14 of the study, all birds except T1 orally received a mixed E. acervulina, E. maxima, and E. tenella coccidial inoculum diluted to a 1.0 ml volume (p.o.). Inoculum level attempted to produce a moderate challenge.
# On DOT 20, a select number of birds from each cage were selected, sacrificed, weighed, and examined for the degree of presence of coccidia lesions. The Johnson and Reid (1970) method of coccidiosis lesion scoring was used to score the infected region(s) of the intestine. The scoring was based on a 0 to 4 score, with 0 being normal and 4 being the most severe. Also on Day 20 mixed feces were collected from each cage. Each sample was examined for the number of oocysts per gram fecal material by fecal floatation.
# STUDY NO. 1—ANALYSIS METHODOLOGY Means for cage weight gain, feed consumption, feed conversion, lesion scores, oocyst counts (OPGs), and mortality were calculated.
# [5] = DAY 0-20, infected Day 14, Inventive Compound 0.551%
# [6] = DAY 0-28, infected Day 14, Inventive Compound 0.551%
# [7] = DAY 14 (before challenge), Inventive Compound 0.551% in feed
# [8] = DAY 14-20, infected Day 14, Inventive Compound 0.551%
# [9] = DAY 14-28, infected Day 14, Inventive Compound 0.551%
# [10] = DOT 20, Johnson and Reid 0 to 4 score, Inventive Compound 0.551%
# [11] = Day 20 mixed feces, fecal floatation, Inventive Compound 0.551%
# T1 sequence (O00206 24-839): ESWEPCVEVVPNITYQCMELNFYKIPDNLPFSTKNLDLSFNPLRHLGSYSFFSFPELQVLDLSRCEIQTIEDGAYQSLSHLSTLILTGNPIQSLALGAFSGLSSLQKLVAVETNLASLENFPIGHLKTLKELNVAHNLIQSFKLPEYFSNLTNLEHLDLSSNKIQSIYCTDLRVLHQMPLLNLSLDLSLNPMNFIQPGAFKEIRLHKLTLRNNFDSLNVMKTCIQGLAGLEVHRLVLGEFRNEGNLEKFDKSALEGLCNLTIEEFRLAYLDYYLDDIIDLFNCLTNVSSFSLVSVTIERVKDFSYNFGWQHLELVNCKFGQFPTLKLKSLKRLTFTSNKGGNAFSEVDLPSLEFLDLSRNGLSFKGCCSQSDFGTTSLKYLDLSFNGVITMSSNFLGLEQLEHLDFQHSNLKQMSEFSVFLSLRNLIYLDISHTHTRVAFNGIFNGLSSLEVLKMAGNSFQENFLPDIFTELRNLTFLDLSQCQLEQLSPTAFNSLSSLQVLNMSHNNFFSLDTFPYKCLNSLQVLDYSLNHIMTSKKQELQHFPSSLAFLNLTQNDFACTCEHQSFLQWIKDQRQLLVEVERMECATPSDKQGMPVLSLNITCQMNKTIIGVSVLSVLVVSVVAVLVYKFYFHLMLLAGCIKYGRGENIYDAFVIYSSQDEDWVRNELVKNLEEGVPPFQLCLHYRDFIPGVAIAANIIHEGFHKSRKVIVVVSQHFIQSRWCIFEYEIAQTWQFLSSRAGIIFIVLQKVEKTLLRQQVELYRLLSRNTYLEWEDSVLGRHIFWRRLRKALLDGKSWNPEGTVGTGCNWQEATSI
# T1 sequence (Q9Y6Y9 17-160 limits assumed): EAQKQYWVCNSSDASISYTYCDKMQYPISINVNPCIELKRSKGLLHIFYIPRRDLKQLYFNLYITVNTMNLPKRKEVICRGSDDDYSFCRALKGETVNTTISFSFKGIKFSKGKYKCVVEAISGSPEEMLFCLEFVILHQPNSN
smiles,measurement,setting,value
"CC[C@@]1([C@@H]2O[C@@H]([C@H]3O[C@@](O)(CO)[C@H](C)C[C@@H]3C)C[C@@H]2C)CC[C@H]([C@]2(C)CC[C@]3(C[C@H](O)[C@@H](C)[C@@H]([C@@H](C)[C@@H](OC)[C@H](C)C(=O)O)O3)O2)O1 [Coban, Monensin, USP]",% Mortality,"[1]; DAY 0-14, challenge Day 7",0.833a %
same,Avg Body Weight (g),"[1]; DAY 0-14, challenge Day 7",496.13a g
same,FCR,"[1]; DAY 0-14, challenge Day 7",1.112ab
same,Feed Intake (g/bird/day),"[1]; DAY 0-14, challenge Day 7",34.680b g/bird/day
same,% Mortality,[1]; DAY 0-21,1.563a %
same,Avg Body Weight (g),[1]; DAY 0-21,951.80a g
same,FCR,[1]; DAY 0-21,1.151a
same,Feed Intake (g/bird/day),[1]; DAY 0-21,54.811a g/bird/day
same,% Mortality,[1]; DAY 0-28,1.563a %
same,Avg Body Weight (g),[1]; DAY 0-28,1535.00a g
same,FCR,[1]; DAY 0-28,1.387a
same,Feed Intake (g/bird/day),[1]; DAY 0-28,78.960c g/bird/day
same,% Mortality,[1]; DAY 15-21,0.729a %
same,Avg Body Weight (g),[1]; DAY 15-21,445.167a g
same,FCR,[1]; DAY 15-21,1.244ab
same,Feed Intake (g/bird/day),[1]; DAY 15-21,77.988a g/bird/day
same,% Mortality,[1]; DAY 22-28,0.000a %
same,Avg Body Weight (g),[1]; DAY 22-28,583.217a g
same,FCR,[1]; DAY 22-28,1.825a
same,Feed Intake (g/bird/day),[1]; DAY 22-28,151.410c g/bird/day
same,DAY 14 Avg Lesion Score Ceca,[1]; Day 14,0.292a
same,DAY 14 Avg Lesion Score Duodenum,[1]; Day 14,0.375b
same,DAY 28 Avg Lesion Score Ceca,[1]; Day 28,0.229a
same,DAY 28 Avg Lesion Score Duodenum,[1]; Day 28,0.208a
CC(C)C(=O)c1c(C(C)C)nn2ccccc12 [Ibudilast],"rates of gastrointestinal side effects, headache, and depression",TLR4 [2],higher rates
CCOC(=O)C1=CCCC[C@H]1S(=O)(=O)Nc1ccc(F)cc1Cl [Resatorvid],mortality in Phase 3 clinical trials,TLR4 [3],failed to reduce mortality
CC[C@@H](C(=O)[C@@H](C)[C@@H](O)[C@H](C)[C@@H]1O[C@@H]([C@@H](CC)C(=O)O)CC[C@@H]1C)[C@H]1O[C@]2(C=C[C@@H](O)[C@]3(CC[C@@](C)([C@H]4CC[C@](O)(CC)[C@H](C)O4)O3)O2)[C@H](C)C[C@@H]1C [Salinomycin],FCR,[4]; [5],1.597bc
same,Feed Intake,[4]; [5],5.433a
same,Wt. Gain,[4]; [5],0.360b
same,FCR,[4]; [6],1.625bc
same,Feed Intake,[4]; [6],5.918a
same,Wt. Gain,[4]; [6],0.376b
same,FCR,[4]; [7],1.156a
same,Feed Intake,[4]; [7],2.384a
same,Wt. Gain,[4]; [7],0.218a
same,FCR,[4]; [8],1.744b
same,Feed Intake,[4]; [8],3.049a
same,Wt. Gain,[4]; [8],0.185b
same,FCR,[4]; [9],1.766c
same,Feed Intake,[4]; [9],3.534a
same,Wt. Gain,[4]; [9],0.202b
same,Lesion Scores Avg.,[4]; [10],1.3c
same,Lesion Scores Eimeria acervulina,[4]; [10],2.1c
same,Lesion Scores Eimeria maxima,[4]; [10],0.9c
same,Lesion Scores Eimeria tenella,[4]; [10],0.7c
same,Oocysts per Gram Fecal Material Avg.,[4]; [11],9722b
same,Oocysts per Gram Fecal Material Eimeria acervulina,[4]; [11],4511a
same,Oocysts per Gram Fecal Material Eimeria maxima,[4]; [11],484b
same,Oocysts per Gram Fecal Material Eimeria tenella,[4]; [11],4727c
